Reference: patent publication US20260001928A1 (CORTERIA PHARMACEUTICALS, priority 2022, published 2026)
*1 amine or outer side, *2 acyl side, *3 side chain or, on linkers, in order; H or OH if unused. Where a SMILES comes first, the peptide text is derived from it. Side-chain parts run from the residue outwards. [ ]: non-standard residue; d: D form. The star is where a group is joined. C16 diacid = O=C(O)CCCCCCCCCCCCCCC(=O)*; γGlu = O=C(O)[C@H](CCC(=O)[*:2])N[*:1]; C14 diacid = O=C(O)CCCCCCCCCCCCC(=O)*; Api = NC1(C(=O)O)CCNCC1; AEEA = NCCOCCOCC(=O)O; Aib = CC(C)(N)C(=O)O

What was measured:
[1] = target: T1, human CRF2a receptor (Homo sapiens, UniProt Q13324); experiment: Activity at human CRF2a receptor, cAMP functional assay in TeloHEAC cells; assay type: cell-based; conditions: TeloHEAC cells stably expressing human CRF2a receptor, relative to urocortin 2 (100 nM = 100%)
T1 construct: expressed in transfected cells; host or cells: TeloHEAC cells
T1 sequence (Q13324 1-411): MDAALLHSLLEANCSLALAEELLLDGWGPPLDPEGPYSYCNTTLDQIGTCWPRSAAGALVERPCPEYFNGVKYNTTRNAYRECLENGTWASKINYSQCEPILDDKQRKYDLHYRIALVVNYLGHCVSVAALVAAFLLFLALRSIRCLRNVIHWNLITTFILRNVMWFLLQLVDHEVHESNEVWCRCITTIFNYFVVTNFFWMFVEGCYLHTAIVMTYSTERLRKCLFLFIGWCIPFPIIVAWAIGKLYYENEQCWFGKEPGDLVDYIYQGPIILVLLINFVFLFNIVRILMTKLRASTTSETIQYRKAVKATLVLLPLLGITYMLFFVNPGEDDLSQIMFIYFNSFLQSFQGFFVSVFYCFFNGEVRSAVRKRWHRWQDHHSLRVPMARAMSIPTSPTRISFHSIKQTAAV
Outline: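 TeloHEAC cells stably expressing human CRF2a (10000 cells/well, suspended in HBSS/20 mM HEPES with 2 mM IBMX) were exposed to compounds for 30 min at 37 °C. cAMP was read as the 665/620 nm fluorescence ratio after 1 h at room temperature. EC50 was derived relative to 100 nM urocortin 2, set as 100%.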

[2] = target: T2, CFR1R receptor (Homo sapiens, UniProt P34998); experiment: Activity at anti-target CFR1R receptor, cAMP assay in CRF1R-overexpression CHO-K1 cells; assay type: cell-based; conditions: 100% = Sauvagine at 100 nM; for EC50: cAMP
T2 construct: host or cells: CHO-K1 (clone 2)
T2 sequence (P34998 24-415): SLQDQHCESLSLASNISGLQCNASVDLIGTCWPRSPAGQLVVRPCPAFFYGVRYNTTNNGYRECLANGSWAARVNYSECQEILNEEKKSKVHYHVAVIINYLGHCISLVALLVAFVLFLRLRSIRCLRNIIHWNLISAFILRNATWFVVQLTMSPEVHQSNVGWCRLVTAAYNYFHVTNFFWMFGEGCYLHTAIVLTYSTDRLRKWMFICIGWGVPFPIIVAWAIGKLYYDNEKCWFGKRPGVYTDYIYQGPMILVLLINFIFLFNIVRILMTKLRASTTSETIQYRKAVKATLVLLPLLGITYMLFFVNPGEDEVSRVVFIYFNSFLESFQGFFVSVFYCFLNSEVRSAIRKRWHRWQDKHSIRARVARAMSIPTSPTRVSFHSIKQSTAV
Outline: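 cAMP readout in CRF1R-overexpressing CHO-K1 cells (clone 2), run as for the TeloHAEC assay at 4000 cells/well final. Cells came from cryopreserved banks. Sauvagine at 100 nM defined 100% activation.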

Row | SMILES | EC50 [1] [nM] | Emax (% I) [2] [% I] | EC50 [2] [nM]
1 | CC[C@H](C)[C@H](NC(C)=O)C(=O)N[C@H](C(=O)N[C@@H](CC(C)C)C(=O)N[C@@H](CO)C(=O)N[C@@H](CC(C)C)C(=O)N[C@@H](CC(=O)O)C(=O)N[C@@H](C(=O)N1CCC[C@H]1C(=O)N[C@H](C(=O)N[C@@H](CCCCN)C(=O)N[C@@H](CC(C)C)C(=O)N[C@@H](CCCCNC(=O)CC[C@H](NC(=O)CCCCCCCCCCCCCCC(=O)O)C(=O)O)C(=O)N[C@@H](CCCCN)C(=O)N[C@H](C(=O)N[C@@H](CC(C)C)C(=O)N[C@@H](CC(C)C)C(=O)N[C@@H](CCC(=O)O)C(=O)N[C@@H](CCC(N)=O)C(=O)N[C@@H](CCC(=O)O)C(=O)N[C@@H](CCCCN)C(=O)N[C@@H](CCC(N)=O)C(=O)N[C@@H](CCCCN)C(=O)N[C@@H](CCCCN)C(=O)N[C@@H](CCC(N)=O)C(=O)N[C@@H](C)C(=O)N[C@@H](CCC(=O)O)C(=O)N[C@@H](CCC(N)=O)C(=O)N[C@@H](C)C(=O)N[C@@H](CCC(=O)O)C(=O)N[C@H](C(=O)N[C@@H](CC(N)=O)C(=O)NC(C)(C)C(=O)N[C@@H](CCC(N)=O)C(=O)N[C@H](C(=O)N[C@@H](CC(C)C)C(=O)N[C@@H](C)C(=O)N[C@@H](CCC(N)=O)C(=O)N[C@H](C(N)=O)C(C)C)[C@@H](C)CC)[C@@H](C)O)[C@@H](C)CC)[C@@H](C)CC)C(C)C)C(C)C [compound 167] (Ac-IVLSLD[dV]PIKLK([γGlu-C16 diacid])KILLEQEKQKKQAEQAETN[Aib]QILAQV-NH2) | 1.15 | 7 | > 250
2 | CC[C@H](C)[C@H](NC(C)=O)C(=O)N[C@H](C(=O)N[C@@H](CC(C)C)C(=O)N[C@@H](CO)C(=O)N[C@@H](CC(C)C)C(=O)N[C@@H](CC(=O)O)C(=O)N[C@@H](C(=O)N1CCC[C@H]1C(=O)N[C@H](C(=O)N[C@@H](CCCCN)C(=O)N[C@@H](CC(C)C)C(=O)N[C@@H](CCCCNC(=O)CC[C@H](NC(=O)CCCCCCCCCCCCC(=O)O)C(=O)O)C(=O)N[C@@H](CCCCN)C(=O)N[C@H](C(=O)N[C@@H](CC(C)C)C(=O)N[C@@H](CC(C)C)C(=O)N[C@@H](CCC(=O)O)C(=O)N[C@@H](CCC(N)=O)C(=O)N[C@@H](CCC(=O)O)C(=O)N[C@@H](CCCCN)C(=O)N[C@@H](CCC(N)=O)C(=O)N[C@@H](CCCCN)C(=O)NC(C)(C)C(=O)N[C@@H](CCC(N)=O)C(=O)N[C@@H](CCCNC(=N)N)C(=O)N[C@@H](CCC(=O)O)C(=O)N[C@@H](CCC(N)=O)C(=O)N[C@@H](C)C(=O)N[C@@H](CCC(=O)O)C(=O)N[C@H](C(=O)N[C@@H](CC(N)=O)C(=O)NC1(C(=O)N[C@@H](CCC(N)=O)C(=O)N[C@H](C(=O)N[C@@H](CC(C)C)C(=O)N[C@@H](C)C(=O)N[C@@H](CCC(N)=O)C(=O)N[C@H](C(N)=O)C(C)C)[C@@H](C)CC)CCNCC1)[C@@H](C)O)[C@@H](C)CC)[C@@H](C)CC)C(C)C)C(C)C [compound 170] (Ac-IVLSLD[dV]PIKLK([γGlu-C14 diacid])KILLEQEKQK[Aib]QREQAETN[Api]QILAQV-NH2) | 1.28 | 5 | > 250

Next, values leading:

Row | EC50 [1] [nM] | Emax (% I) [2] [% I] | EC50 [2] [nM] | SMILES
3 | 0.8 | 3 | > 250 | CC[C@H](C)[C@H](NC(C)=O)C(=O)N[C@H](C(=O)N[C@@H](CC(C)C)C(=O)N[C@@H](CO)C(=O)N[C@@H](CC(C)C)C(=O)N[C@@H](CC(=O)O)C(=O)N[C@@H](C(=O)N1CCC[C@H]1C(=O)N[C@H](C(=O)N[C@@H](CCCCN)C(=O)N[C@@H](CC(C)C)C(=O)N[C@@H](CCCCNC(=O)CC[C@H](NC(=O)CCCCCCCCCCCCCCC(=O)O)C(=O)O)C(=O)N[C@@H](CCCCN)C(=O)N[C@H](C(=O)N[C@@H](CC(C)C)C(=O)N[C@@H](CC(C)C)C(=O)N[C@@H](CCC(=O)O)C(=O)N[C@@H](CCC(N)=O)C(=O)N[C@@H](CCC(=O)O)C(=O)N[C@@H](CCCCN)C(=O)N[C@@H](CCC(N)=O)C(=O)N[C@@H](CCCCN)C(=O)N[C@@H](CCC(=O)O)C(=O)N[C@@H](CCC(N)=O)C(=O)N[C@@H](CCCNC(=N)N)C(=O)N[C@@H](CCC(=O)O)C(=O)N[C@@H](CCC(N)=O)C(=O)N[C@@H](C)C(=O)N[C@@H](CCC(=O)O)C(=O)N[C@H](C(=O)N[C@@H](CC(N)=O)C(=O)NC(C)(C)C(=O)N[C@@H](CCC(N)=O)C(=O)N[C@H](C(=O)N[C@@H](CC(C)C)C(=O)N[C@@H](C)C(=O)N[C@@H](CCC(N)=O)C(=O)N[C@H](C(N)=O)C(C)C)[C@@H](C)CC)[C@@H](C)O)[C@@H](C)CC)[C@@H](C)CC)C(C)C)C(C)C [compound 168] (Ac-IVLSLD[dV]PIKLK([γGlu-C16 diacid])KILLEQEKQKEQREQAETN[Aib]QILAQV-NH2)
4 | 1.34 | 13 | > 250 | CC[C@H](C)[C@H](NC(C)=O)C(=O)N[C@H](C(=O)N[C@@H](CC(C)C)C(=O)N[C@@H](CO)C(=O)N[C@@H](CC(C)C)C(=O)N[C@@H](CC(=O)O)C(=O)N[C@@H](C(=O)N1CCC[C@H]1C(=O)N[C@H](C(=O)N[C@@H](CCCCN)C(=O)N[C@@H](CC(C)C)C(=O)N[C@@H](CCCCNC(=O)CC[C@H](NC(=O)CCCCCCCCCCCCC(=O)O)C(=O)O)C(=O)N[C@@H](CCCCN)C(=O)N[C@H](C(=O)N[C@@H](CC(C)C)C(=O)N[C@@H](CC(C)C)C(=O)N[C@@H](CCC(=O)O)C(=O)N[C@@H](CCC(N)=O)C(=O)N[C@@H](CCC(=O)O)C(=O)N[C@@H](CCCCN)C(=O)N[C@@H](CCC(N)=O)C(=O)N[C@@H](CCCCN)C(=O)N[C@@H](C)C(=O)N[C@@H](CCC(N)=O)C(=O)N[C@@H](CCCNC(=N)N)C(=O)N[C@@H](CCC(=O)O)C(=O)N[C@@H](CCC(N)=O)C(=O)N[C@@H](C)C(=O)N[C@@H](CCC(=O)O)C(=O)N[C@H](C(=O)N[C@@H](CC(N)=O)C(=O)NC1(C(=O)N[C@@H](CCC(N)=O)C(=O)N[C@H](C(=O)N[C@@H](CC(C)C)C(=O)N[C@@H](C)C(=O)N[C@@H](CCC(N)=O)C(=O)N[C@H](C(N)=O)C(C)C)[C@@H](C)CC)CCNCC1)[C@@H](C)O)[C@@H](C)CC)[C@@H](C)CC)C(C)C)C(C)C [compound 169] (Ac-IVLSLD[dV]PIKLK([γGlu-C14 diacid])KILLEQEKQKAQREQAETN[Api]QILAQV-NH2)
5 | 5.79 | 0 | > 250 | CC[C@H](C)[C@H](NC(C)=O)C(=O)N[C@H](C(=O)N[C@@H](CC(C)C)C(=O)N[C@@H](CO)C(=O)N[C@@H](CC(C)C)C(=O)N[C@@H](CC(=O)O)C(=O)N[C@@H](C(=O)N1CCC[C@H]1C(=O)N[C@H](C(=O)N[C@@H](CCCCN)C(=O)N[C@@H](CC(C)C)C(=O)N[C@@H](CCCCNC(=O)COCCOCCNC(=O)COCCOCCNC(=O)CC[C@H](NC(=O)CCCCCCCCCCCCC(=O)O)C(=O)O)C(=O)N[C@@H](CCCCN)C(=O)N[C@H](C(=O)N[C@@H](CC(C)C)C(=O)N[C@@H](CC(C)C)C(=O)N[C@@H](CCC(=O)O)C(=O)N[C@@H](CCC(N)=O)C(=O)N[C@@H](CCC(=O)O)C(=O)N[C@@H](CCCCN)C(=O)N[C@@H](CCC(N)=O)C(=O)N[C@@H](CCCCN)C(=O)N[C@@H](CCCCN)C(=O)N[C@@H](CCC(N)=O)C(=O)N[C@@H](CCCNC(=N)N)C(=O)N[C@@H](CCC(=O)O)C(=O)N[C@@H](CCC(N)=O)C(=O)N[C@@H](C)C(=O)N[C@@H](CCC(=O)O)C(=O)N[C@H](C(=O)N[C@@H](CC(N)=O)C(=O)NC(C)(C)C(=O)N[C@@H](CCC(N)=O)C(=O)N[C@H](C(=O)N[C@@H](CC(C)C)C(=O)N[C@@H](C)C(=O)N[C@@H](CCC(N)=O)C(=O)N[C@H](C(N)=O)C(C)C)[C@@H](C)CC)[C@@H](C)O)[C@@H](C)CC)[C@@H](C)CC)C(C)C)C(C)C [compound 171] (Ac-IVLSLD[dV]PIKLK([AEEA-AEEA-γGlu-C14 diacid])KILLEQEKQKKQREQAETN[Aib]QILAQV-NH2)
